Tests used:
Assay type in all cases: in vivo, human
[1] = tested on: subjects (male and female) habituated to average caffeine consumption; assay: Attention Network Test (CRSD-ANT), Example 1: mean response time, alertness, orientation, executive attention; conditions: day 7 after IP, compared to placebo
Description: Only right-handed subjects were included in the study to avoid spatial bias. […] The subjects had to refrain from smoking 24 h before study onset and refrain from alcohol intake throughout the study. Subjects with a history or presence of clinically important cardiac, renal, hepatic, endocrine (including diabetes mellitus), pulmonary, biliary, gastrointestinal, pancreatic, or neurological disorders and uncontrolled hypertension were excluded from the study. For each subject, the study was terminated after data collection on the assessment day. […] The IPs included Cymbopogon flexuosus (LG), water-soluble and water-insoluble extracts of Alpinia galanga (AG1 and AG2 respectively), and water-soluble and water-insoluble extracts of Glycyrrhiza glabra (GG1 and GG2 respectively). All interventions were administered to subjects in the form of identical capsules that had been packed in duly labeled HDPE bottles. […] The subjects were allowed to drink water as desired and allowed to relax in an isolated room at a comfortable temperature and were free to use a computer, listen to music, or read magazines during the clinic stay period. […] To ensure treatment compliance, product accountability was monitored by a clinical research coordinator on the following visit. […] Effects of IPs on different aspects of the attention network, such as alertness, orientation, and executive control, were also assessed by ANT. […]

healthy young volunteers [2] = assay: Attention network test (ANT 1.3.0), mental alertness, Example 2
Description: The subjects were then screened. […] The subjects with body mass index (BMI) between 18.50 and 25.00 kg/m2 and a resting blood pressure≤140/90 mm Hg were considered eligible. To avoid subjects with psychotic disorders such as anxiety, depression, ADD or ADHD, subjects with Generalized Anxiety Disorder Screening (GAD-7) score≥7 & Patient Health Questionnaire-9 (PHQ-9) score≥14 were excluded from the study. Subjects with alertness score (Jin Fan's Attention Network Test, version 1.3.0) of 50±20 milliseconds at screening visit were considered eligible. Concomitant therapy was strictly prohibited in order to exclude any significant effect on the results. All the subjects were instructed thoroughly on the investigation procedures.
Subjects reported to the clinic during the morning hours and testing began at early time of day (8:00-9:00 a.m.) for each visit to avoid influence of daily challenges (related to mental and physical stress) on outcomes and the time of day was matched for all three visits to reduce variability in response due to diurnal pattern. […] Subjects were also instructed to obtain sufficient sleep during the night prior to testing which was confirmed using sleep diary. Upon arrival at clinic, subjects were asked to rest quietly for 15-20 minutes after which vital parameters were measured and a standardized meal of approximately 200 calories was provided to control variations from possible digestion confounds. Baseline data were collected 30 minutes post breakfast followed by administration of IP, wherein one dose of the product was administered to subject by trial coordinator at investigational site.
Post ingestion of IP, data were collected at 1, 3, and 5 hours. No other food or calorie-containing beverages were provided. Subjects were allowed to drink water as desired. Subjects were allowed to relax in an isolated room at a comfortable temperature and free to use the computer, listen to music or read magazines during the clinic stay period. To analyze the effect on IP on sleep architecture, a second dose was supplied in a labeled bottle to be taken before dinner in the night of the same day and subjects were asked to record all the details pertaining to sleep quality and duration in sleep diary. To ensure treatment compliance, product accountability was monitored by clinical research coordinator on the following visit.
The primary efficacy variable was mental alertness. Alertness is defined as achieving and maintaining a state of high sensitivity to incoming stimuli. The Attention network test (ANT) was implemented for this purpose as it provides a behavioral measure of the efficiency of the different components of attention networks separately within a single task. The downloaded JAVA version of ANT 1.3.0 (Fan et al., 2002, 2005) was used to conduct the trial. The subject was seated in a silent and secluded room. All external distractions were avoided and subjects were asked to give complete attention to the task at hand. Mental alertness in ANT was calculated in terms of difference score quantified in milliseconds and calculated by subtracting average double-cue RTs from the no-cue RTs. […]

healthy young volunteers [3] = assay: Psychomotor Vigilance Task (PVT), sustained attention, Example 2; conditions: mean ± SD
Text: Subjects were derived through multiple sources including a healthy volunteer's database and a consumer group's survey agency. The subjects were then screened. […] The subjects with body mass index (BMI) between 18.50 and 25.00 kg/m2 and a resting blood pressure≤140/90 mm Hg were considered eligible. To avoid subjects with psychotic disorders such as anxiety, depression, ADD or ADHD, subjects with Generalized Anxiety Disorder Screening (GAD-7) score≥7 & Patient Health Questionnaire-9 (PHQ-9) score≥14 were excluded from the study. […] Concomitant therapy was strictly prohibited in order to exclude any significant effect on the results. All the subjects were instructed thoroughly on the investigation procedures. Subjects were randomized and allocated to interventional products in each visit, divided in four treatment arms based on randomization chart [SPSS version 10.0, IBM] and similar trend was followed for subsequent visits. […] All these treatments were administered to subjects in the form of capsules which were identical in appearance and packed in duly labeled HDPE bottles. The blinding codes were secured at the site in tamper-evident sealed envelopes with no access to the investigators. Thus, the double blind nature of the data were ensured and strictly followed. […] Composition details of all these IPs are: Subjects reported to the clinic during the morning hours and testing began at early time of day (8:00-9:00 a.m.) for each visit to avoid influence of daily challenges (related to mental and physical stress) on outcomes and the time of day was matched for all three visits to reduce variability in response due to diurnal pattern. […] Subjects were also instructed to obtain sufficient sleep during the night prior to testing which was confirmed using sleep diary. Upon arrival at clinic, subjects were asked to rest quietly for 15-20 minutes after which vital parameters were measured and a standardized meal of approximately 200 calories was provided to control variations from possible digestion confounds. […] Post ingestion of IP, data were collected at 1, 3, and 5 hours. No other food or calorie-containing beverages were provided. Subjects were allowed to drink water as desired. Subjects were allowed to relax in an isolated room at a comfortable temperature and free to use the computer, listen to music or read magazines during the clinic stay period. […] To ensure treatment compliance, product accountability was monitored by clinical research coordinator on the following visit. […] The mean MRT was calculated in milliseconds, which is the time a subject took to press the response button as soon as each stimulus appeared. […]

For Cn1c(=O)c2c(ncn2C)n(C)c1=O [Caffeine, caffeine], the alertness [1] was “decrease in alertness compared to the placebo group”, the “ANT-Alertness (Mental Alertness) score” value (healthy young volunteers [2]; 1H: value at 1 hour, PP population, mean ± SD) was 57.0 ± 18.1 ms and the “increase in alertness score from baseline” value (healthy young volunteers [2]; at one hour) was 8.97 ± 18.20 ms. The “decrease in alertness score from baseline” value (healthy young volunteers [2]; at three hours) was 1.23 ± 18.60 ms, the “subjects that would exhibit higher alertness than the subjects in the placebo group” value (healthy young volunteers [2]; from Cohen's d) was 47% and the “effect size in alertness score, Cohen's d” value (healthy young volunteers [2]; in comparison with placebo) was 0.08. For the same compound, the “PVT-Mean Response Time (Sustained Attention)” value (from here on “PVT-Mean Response Time”) (healthy young volunteers [3]; 1H: value at 1 hour) was 290.1 ± 51.6 ms, the “PVT-Mean Response Time” value (healthy young volunteers [3]; 3H: value at 3 hours) was 287.6 ± 43.1 ms and the “PVT-Mean Response Time” value (healthy young volunteers [3]; 5H: value at 5 hours) was 296.9 ± 51.5 ms. For the same compound, the “PVT-Mean Response Time” value (healthy young volunteers [3]; BL: baseline value) was 310.4 ± 103.3 ms.

Source: patent US10946059B2, “Formulation containing an extract of Alpinia galanga, a process for the preparation thereof, and uses thereof” (priority 2017, dated 2021)
